Publication PMC6518791, “Gluconate suppresses seizure activity in developing brains by inhibiting CLC-3 chloride channels” (Molecular Brain, 2019)

Biological target: T1, CLC-3 Cl^− channels (neonatal mouse hippocampal CA3 pyramidal neurons) (Mus musculus, UniProt P51791)
T1 construct: gene Clcn3; native channel, CA3 pyramidal neurons in hippocampal slices (P10-12); current largely absent in Clcn3-/- neurons
T1 sequence (P51791 1-818): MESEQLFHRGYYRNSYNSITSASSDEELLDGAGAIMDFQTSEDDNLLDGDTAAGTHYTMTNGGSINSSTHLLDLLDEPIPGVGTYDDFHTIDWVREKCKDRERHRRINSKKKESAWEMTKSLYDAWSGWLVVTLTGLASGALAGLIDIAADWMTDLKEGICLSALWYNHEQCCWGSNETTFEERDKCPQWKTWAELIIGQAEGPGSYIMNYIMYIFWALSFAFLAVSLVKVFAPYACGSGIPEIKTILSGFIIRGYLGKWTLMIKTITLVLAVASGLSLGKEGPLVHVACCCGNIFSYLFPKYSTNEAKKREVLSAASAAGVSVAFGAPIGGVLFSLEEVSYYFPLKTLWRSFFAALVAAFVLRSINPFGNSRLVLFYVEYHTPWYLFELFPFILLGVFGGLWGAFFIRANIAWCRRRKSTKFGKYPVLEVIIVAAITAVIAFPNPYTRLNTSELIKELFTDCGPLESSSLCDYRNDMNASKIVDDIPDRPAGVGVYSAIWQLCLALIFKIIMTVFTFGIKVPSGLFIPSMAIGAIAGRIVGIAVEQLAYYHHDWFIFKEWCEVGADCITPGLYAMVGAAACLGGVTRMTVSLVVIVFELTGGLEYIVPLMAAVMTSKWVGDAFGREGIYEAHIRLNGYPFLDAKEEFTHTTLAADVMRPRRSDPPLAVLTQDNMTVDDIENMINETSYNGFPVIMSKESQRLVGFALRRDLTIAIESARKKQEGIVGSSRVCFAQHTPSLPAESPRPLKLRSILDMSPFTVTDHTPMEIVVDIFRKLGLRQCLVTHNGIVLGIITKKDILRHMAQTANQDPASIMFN
Assay: whole-cell patch clamp, voltage-dependent Cl- current in brain slices
Settings: total neuronal Cl- current, no knockout control told

IC50: ~6.2 mM
SMILES: C[C@@H](O)CC(=O)O [β-HB]
